Where two headings read alike, the source gives them in different places.
Assays:
[1] = test system: Plasmodium falciparum (strain NF54); experiment: Antimalarial activity test: growth of Plasmodium falciparum in infected human erythrocytes, 3H-hypoxanthine incorporation; type: cell-based; conditions: strain NF54 sensitive to chloroquine, 72 h total incubation
Protocol: The compounds according to the invention underwent pharmacological trials to determine their inhibitory effect on the growth of Plasmodium falciparum (strain NF54 sensitive to inhibition with chloroquine) in an in vitro test using infected human erythrocytes. The growth of the parasites is measured via the incorporation of tritiated hypoxanthine compared with the incorporation in the absence of drug. The tests are performed in 96-well microplates (Falcon™ 96-well microtiter plates, ref. No. 353072) in RPMI 1640 solutions (10.44 g/l) (without hypoxanthine) with HEPES (5.94 g/l), NaHCO3 (2.1 g/l), neomycin ([…])+AlbumaxR II (5 g/l) supplemented with human erythrocytes with a final hematocrit of 1.25% and a final parasitemia of 0.15%.
The stock solution of the compounds is prepared at 10 mg/mL in DMSO. For the test, fresh solutions at the desired concentrations are prepared in RPMI medium. For the test, 100 μl of compound are mixed with 100 μl of infected blood. For the determination of the IC50 values, the compounds are tested in twofold serial dilution.
The plates are incubated at 37° C. under a humid atmosphere with 93% N2, 4% CO2 and 3% O2. After 48 hours, 50 μl of ^3H-hypoxanthine (=0.5 μCi) in RPMI medium are added to each well and incubation is continued for a further 24 hours. Next, the plates are washed with distilled water and the cell lyzate is transferred onto fiberglass filters. The filters are dried and the radioactivity is determined by liquid scintillation. The results in cpm are converted into percentages of inhibition. The inhibitory activity is given by the concentration that inhibits 50% of the growth of the parasite relative to a control without compound.

human PI3Kα = human PI3Kα (Homo sapiens (Human), UniProt P42336); experiment: Human PI3Kα activity test (luciferin/luciferase ATP consumption, KinaseGlo); type: biochemical; conditions: read-out: IC50 Human PI3Kα
Sequence of human PI3Kα (P42336 whole entry): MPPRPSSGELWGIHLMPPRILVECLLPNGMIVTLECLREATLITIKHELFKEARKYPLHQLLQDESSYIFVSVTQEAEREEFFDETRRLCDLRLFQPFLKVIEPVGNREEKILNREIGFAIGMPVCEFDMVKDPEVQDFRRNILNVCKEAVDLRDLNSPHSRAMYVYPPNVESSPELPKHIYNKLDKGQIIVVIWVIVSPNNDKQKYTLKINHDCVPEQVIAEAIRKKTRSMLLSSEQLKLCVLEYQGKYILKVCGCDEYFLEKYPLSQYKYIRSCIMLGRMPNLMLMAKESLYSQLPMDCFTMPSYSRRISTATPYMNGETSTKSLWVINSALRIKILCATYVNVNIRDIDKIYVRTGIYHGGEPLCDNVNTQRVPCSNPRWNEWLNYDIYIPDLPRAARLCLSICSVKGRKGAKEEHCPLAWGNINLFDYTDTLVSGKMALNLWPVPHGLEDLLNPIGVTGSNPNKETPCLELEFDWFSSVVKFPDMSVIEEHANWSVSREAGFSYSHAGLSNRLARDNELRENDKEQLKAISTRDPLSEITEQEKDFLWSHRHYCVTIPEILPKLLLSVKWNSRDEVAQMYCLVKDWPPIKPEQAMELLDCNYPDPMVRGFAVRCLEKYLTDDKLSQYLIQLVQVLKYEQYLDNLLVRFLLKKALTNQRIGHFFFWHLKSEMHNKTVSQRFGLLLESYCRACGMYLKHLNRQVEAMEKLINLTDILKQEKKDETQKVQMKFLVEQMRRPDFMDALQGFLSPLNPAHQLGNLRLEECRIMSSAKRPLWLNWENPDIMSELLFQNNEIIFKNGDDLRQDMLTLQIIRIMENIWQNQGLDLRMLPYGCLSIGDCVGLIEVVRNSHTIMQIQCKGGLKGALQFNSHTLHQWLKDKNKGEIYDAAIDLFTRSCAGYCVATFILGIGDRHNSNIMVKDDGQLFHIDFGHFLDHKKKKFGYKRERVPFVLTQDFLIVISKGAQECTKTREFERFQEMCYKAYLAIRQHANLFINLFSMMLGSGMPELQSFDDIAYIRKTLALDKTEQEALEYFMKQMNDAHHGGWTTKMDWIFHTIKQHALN
Sequence of human PI3Kα (P27986 whole entry partner): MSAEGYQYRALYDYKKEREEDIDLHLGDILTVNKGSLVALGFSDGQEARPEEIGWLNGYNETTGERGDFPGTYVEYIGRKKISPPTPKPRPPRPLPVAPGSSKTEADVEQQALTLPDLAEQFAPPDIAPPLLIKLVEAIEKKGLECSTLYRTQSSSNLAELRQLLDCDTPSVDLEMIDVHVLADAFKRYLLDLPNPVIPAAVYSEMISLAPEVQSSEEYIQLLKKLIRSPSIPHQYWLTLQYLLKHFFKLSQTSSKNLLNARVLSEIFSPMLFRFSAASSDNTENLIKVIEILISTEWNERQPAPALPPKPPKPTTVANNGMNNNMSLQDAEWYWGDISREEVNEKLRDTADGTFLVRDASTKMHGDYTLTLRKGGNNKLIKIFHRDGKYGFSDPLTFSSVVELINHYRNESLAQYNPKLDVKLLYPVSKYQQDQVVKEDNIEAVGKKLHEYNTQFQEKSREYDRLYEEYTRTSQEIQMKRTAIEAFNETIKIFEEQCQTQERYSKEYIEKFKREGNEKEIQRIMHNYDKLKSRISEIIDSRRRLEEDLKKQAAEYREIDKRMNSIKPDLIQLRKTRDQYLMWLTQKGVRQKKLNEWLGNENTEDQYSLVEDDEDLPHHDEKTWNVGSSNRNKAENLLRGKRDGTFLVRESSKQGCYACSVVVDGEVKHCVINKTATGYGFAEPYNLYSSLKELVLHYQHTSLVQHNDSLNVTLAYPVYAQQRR
Protocol: The test uses a luciferin/luciferase system to measure the concentration of ATP and its consumption during the enzymatic reaction.
After 90 minutes, the reaction is quenched by adding 20 μl/well of KinaseGlo reagent (Promega V6713). After 10 minutes in the dark, the luminescence is read using a PHERAStar microplate reader (reading at 0.8 sec/well).

[2] = Plasmodium falciparum, Erythrocyte
[3] = PI3Kα (p110α/p85α), 50 μM PIP2, 2 μM ATP, 90 minutes
[4] = known compounds of WO 2011/001 112 and WO 2011/001 113

| IC50 [1, 2] [nM] | IC50 (human PI3Kα; [3]) [nM] | IC50 [1] [nM] | IC50 (human PI3Kα; [4]) [nM] | Compound |
| --- | --- | --- | --- | --- |
| 20 | 3130 | – | – | CC(C)(CN1c2nc(N3C[C@@H]4C[C@H]3CO4)cc(=O)n2CC[C@H]1C(F)(F)F)c1ccncc1 [Compound 1, (8S)-9-(2-methyl-2-pyrid-4-ylpropyl)-2-(1S,4S)-2-oxa-5-azabicyclo[2.2.1]hept-5-yl-8-trifluoromethyl-6,7,8,9-tetrahydropyrimido[1,2-a]pyrimidin-4-one] |
| 15 | ≥ 10000 | – | – | O=C(CN1c2nc(N3C[C@@H]4C[C@H]3CO4)cc(=O)n2CC[C@H]1C(F)(F)F)c1ccncc1 [Compound 2, (8S)-2-(1S,4S)-2-oxa-5-azabicyclo[2.2.1]hept-5-yl-9-(2-oxo-2-pyrid-4-ylethyl)-8-trifluoromethyl-6,7,8,9-tetrahydropyrimido[1,2-a]pyrimidin-4-one] |
| 58 | > 10000 | – | – | Cc1ccc(C(=O)CN2c3nc(N4C[C@@H]5C[C@H]4CO5)cc(=O)n3CC[C@H]2C(F)(F)F)cn1 [Compound 4, (8S)-9-[2-(6-methylpyrid-3-yl)-2-oxoethyl]-2-(1S,4S)-2-oxa-5-azabicyclo[2.2.1]hept-5-yl-8-trifluoromethyl-6,7,8,9-tetrahydropyrimido[1,2-a]pyrimidin-4-one] |
| 95 | 8200 | – | – | CNc1ccc(C(=O)CN2c3nc(N4C[C@@H]5C[C@H]4CO5)cc(=O)n3CC[C@H]2C(F)(F)F)cn1 [Compound 5, (8S)-9-[2-(6-methylaminopyrid-3-yl)-2-oxoethyl]-2-(1S,4S)-2-oxa-5-azabicyclo[2.2.1]hept-5-yl-8-trifluoromethyl-6,7,8,9-tetrahydropyrimido[1,2-a]pyrimidin-4-one] |
| > 200 | > 10000 | – | – | CN(C)c1ccc(C(=O)CN2c3nc(N4C[C@@H]5C[C@H]4CO5)cc(=O)n3CC[C@H]2C(F)(F)F)cn1 [Compound 6, (8S)-9-[2-(6-dimethylaminopyrid-3-yl)-2-oxoethyl]-2-(1S,4S)-2-oxa-5-azabicyclo[2.2.1]hept-5-yl-8-trifluoromethyl-6,7,8,9-tetrahydropyrimido[1,2-a]pyrimidin-4-one] |
| 10 | ≥ 10000 | – | – | O=C(CN1c2nc(N3C[C@@H]4C[C@H]3CO4)cc(=O)n2CC[C@H]1C(F)(F)F)c1cccnc1 [Compound 7, (8S)-2-(1S,4S)-2-oxa-5-azabicyclo[2.2.1]hept-5-yl-9-(2-oxo-2-pyrid-3-ylethyl)-8-trifluoromethyl-6,7,8,9-tetrahydropyrimido[1,2-a]pyrimidin-4-one] |
| > 200 | > 10000 | – | – | CN(C)c1ccc(C(=O)CN2c3nc(N4C[C@@H]5C[C@H]4CO5)cc(=O)n3C[C@@]2(C)C(F)(F)F)cn1 [Compound 8, 1-[2-(6-Dimethylaminopyrid-3-yl)-2-oxoethyl]-2-(S)-methyl-7-(1S,4S)-2-oxa-5-azabicyclo[2.2.1]hept-5-yl-2-trifluoromethyl-2,3-dihydro-1H-imidazo[1,2-a]pyrimidin-5-one] |
| > 200 | > 10000 | – | – | CNc1ccc(C(=O)CN2c3nc(N4C[C@@H]5C[C@H]4CO5)cc(=O)n3C[C@@]2(C)C(F)(F)F)cn1 [Compound 9, 2-methyl-1-[2-(6-methylaminopyrid-3-yl)-2-oxoethyl]-7-(1S,4S)-2-oxa-5-azabicyclo[2.2.1]hept-5-yl-2-((S)-trifluoromethyl)-2,3-dihydro-1H-imidazo[1,2-a]pyrimidin-5-one] |
| – | 7200 | 11 | – | COc1ccc(CCN2c3nc(N4C[C@@H]5C[C@H]4CO5)cc(=O)n3C[C@@]2(C)C(F)(F)F)cc1 [Compound 10, (8S)-1-[2-(4-Methoxyphenyl)ethyl]-2-methyl-7-(1S,4S)-2-oxa-5-azabicyclo[2.2.1]hept-5-yl-2-trifluoromethyl-2,3-dihydro-1H-imidazo[1,2-a]pyrimidin-5-one] |
| 40 | ≥ 10000 | – | – | C[C@@]1(C(F)(F)F)Cn2c(nc(N3C[C@@H]4C[C@H]3CO4)cc2=O)N1CC(=O)c1ccc(N)nc1 [Compound 11, (S)-1-[2-(6-Aminopyrid-3-yl)-2-oxoethyl]-2-methyl-7-(1S,4S)-2-oxa-5-azabicyclo[2.2.1]hept-5-yl-2-trifluoromethyl-2,3-dihydro-1H-imidazo[1,2-a]pyrimidin-5-one] |
| 9 | 2900 | – | – | O=c1cc(N2C[C@@H]3C[C@H]2CO3)nc2n1CC[C@@H](C(F)(F)F)N2CCc1cccnc1 [Compound 12, (8S)-2-(1S,4S)-2-oxa-5-azabicyclo[2.2.1]hept-5-yl-9-(2-pyrid-3-ylethyl)-8-trifluoromethyl-6,7,8,9-tetrahydropyrimido[1,2-a]pyrimidin-4-one] |
| – | 5750 | 21 | – | C[C@@]1(C(F)(F)F)Cn2c(nc(N3C[C@@H]4C[C@H]3CO4)cc2=O)N1CCc1cccnc1 [Compound 13, 2-Methyl-7-(1S,4S)-2-oxa-5-azabicyclo[2.2.1]hept-5-yl-1-(2-pyrid-3-ylethyl)-2-((S)-trifluoromethyl)-2,3-dihydro-1H-imidazo[1,2-a]pyrimidin-5-one] |
| 70 | > 10000 | – | – | O=C(CN1c2nc(N3C[C@@H]4C[C@H]3CO4)cc(=O)n2CC[C@H]1C(F)(F)F)c1ccc(NCCO)nc1 [Compound 14, (8S)-9-{2-[6-(2-hydroxyethylamino)pyrid-3-yl]-2-oxoethyl}-2-(1S,4S)-2-oxa-5-azabicyclo[2.2.1]hept-5-yl-8-trifluoromethyl-6,7,8,9-tetrahydropyrimido[1,2-a]pyrimidin-4-one] |
| 150 | > 7200 | – | – | Cc1cncc(C(=O)CN2c3nc(N4C[C@@H]5C[C@H]4CO5)cc(=O)n3CC[C@H]2C(F)(F)F)c1 [Compound 15, (8S)-9-[2-(5-methylpyrid-3-yl)-2-oxoethyl]-2-(1S,4S)-2-oxa-5-azabicyclo[2.2.1]hept-5-yl-8-trifluoromethyl-6,7,8,9-tetrahydropyrimido[1,2-a]pyrimidin-4-one] |
| > 200 | > 7200 | – | – | Cc1cncc(C(=O)CN2c3nc(N4C[C@@H]5C[C@H]4CO5)cc(=O)n3C[C@@]2(C)C(F)(F)F)c1 [Compound 16, 2-methyl-1-[2-(5-methylpyrid-3-yl)-2-oxoethyl]-7-(1S,4S)-2-oxa-5-azabicyclo[2.2.1]hept-5-yl-2-((S)-trifluoromethyl)-2,3-dihydro-1H-imidazo[1,2-a]pyrimidin-5-one] |
| 160 | ≥ 10000 | – | – | Cc1ccc(C(=O)CN2c3nc(N4C[C@@H]5C[C@H]4CO5)cc(=O)n3C[C@@]2(C)C(F)(F)F)cn1 [Compound 17, 2-methyl-1-[2-(6-methylpyrid-3-yl)-2-oxoethyl]-7-(1S,4S)-2-oxa-5-azabicyclo[2.2.1]hept-5-yl-2-((S)-trifluoromethyl)-2,3-dihydro-1H-imidazo[1,2-a]pyrimidin-5-one] |
| – | 1600 | – | – | O=c1cc(N2CC3CCC(C2)O3)nc2n1CC[C@@H](C(F)(F)F)N2C[C@@H](O)c1ccccc1 [Compound 80, (8S)-9-((S)-2-hydroxy-2-phenylethyl)-2-(8-oxa-3-azabicyclo[3.2.1]oct-3-yl)-8-trifluoromethyl-6,7,8,9-tetrahydropyrimido[1,2-a]pyrimidin-4-one] |
| – | 2000 | – | – | COc1ccc(CCN2c3nc(N4CC5CCC(C4)O5)cc(=O)n3CC[C@H]2C(F)(F)F)cc1 [Compound 81, (8S)-9-[2-(4-Methoxyphenyl)ethyl]-2-(8-oxa-3-azabicyclo[3.2.1]oct-3-yl)-8-trifluoromethyl-6,7,8,9-tetrahydropyrimido[1,2-a]pyrimidin-4-one] |
| – | ≥ 10000 | – | – | O=C(CN1c2nc(N3CC4CCC(C3)O4)cc(=O)n2CC[C@H]1C(F)(F)F)c1cccnc1 [Compound 87, (8S)-2-(8-Oxa-3-azabicyclo[3.2.1]oct-3-yl)-9-(2-oxo-2-pyrid-3-ylethyl)-8-trifluoromethyl-6,7,8,9-tetrahydropyrimido[1,2-a]pyrimidin-4-one] |
| – | – | – | 15 | COc1ccc(CCN2c3nc(N4CCOCC4)cc(=O)n3C[C@@]2(C)C(F)(F)F)cc1 [Example 1 (p. 39, WO 2011/001 112), reference compound] |
| – | – | – | 9 | COc1ccc(CCN2c3nc(N4CCOCC4)cc(=O)n3CC[C@H]2C(F)(F)F)cc1 [Example 1 (p. 44, WO 2011/001 113), reference compound] |
| – | – | – | 17 | C[C@@]1(C(F)(F)F)Cn2c(nc(N3CCOCC3)cc2=O)N1C[C@@H](O)c1ccccc1 [Example 10 (p. 61, WO 2011/001 112), reference compound] |

| Compound | IC50 [1, 2] [nM] | IC50 (human PI3Kα; [3]) [nM] | IC50 [1] [nM] | IC50 (human PI3Kα; [4]) [nM] |
| --- | --- | --- | --- | --- |
| Nc1ccc(C(=O)CN2c3nc(N4CC5CC4CO5)cc(=O)n3CC[C@H]2C(F)(F)F)cn1 (stereo partly drawn) [Compound 3, (8S)-9-[2-(6-Aminopyrid-3-yl)-2-oxoethyl]-2-oxa-5-azabicyclo[2.2.1]hept-5-yl-8-trifluoromethyl-6,7,8,9-tetrahydropyrimido[1,2-a]pyrimidin-4-one] | – | 7200 | 13 | – |
